Measurements published in patent US6841684B2, “Imidiazoles having reduced side effects” (Allergan, Inc., priority 1997, dated 2005).
Where two headings read alike, the source gives them in different places. Marks after values point to notes of the source that are not given here.

Assays:
[1] = tested on: cynomolgus monkeys with sustained elevated IOP; test: IOP lowering in conscious monkeys, eyes made hypertensive by argon laser photocoagulation; format: in vivo, cynomolgus monkey; conditions: Macaca fascicularis, topical, single 50 μl eye drop, up to 6 hours, read-out: Maximum % Decrease From Pretreatment Levels Hypertensive Eye (IOP); for inhibition in vivo at 0.3 %: ocular dose 0.3%; for inhibition in vivo at 0.1 %: ocular dose 0.1%; for inhibition in vivo at 0.03 %: ocular dose 0.03%; for inhibition in vivo at 1 %: ocular dose 1%
From the text: Measurements of IOP were made in fully conscious female cynomolgus monkeys weighing 3-4 kg with sustained elevated IOP that was produced in the right eye by argon laser photocoagulation of the trabecular meshwork. Animals were usable for experiments 2 months following surgery. During the experiments, monkeys sat in specially designed chairs (Primate Products, San Francisco), and were fed orange juice and fruit as needed. A 30R model Digilab pneumatonometer (Alcon, Tex.) was used to measure IOP.
Twenty five μl of an anesthetic (proparacaine) was topically applied to each monkey before IOP measurements to minimize ocular discomfort due to tonometry. Two baseline measurements were made prior to instillation of the drugs, followed by periodic measurements up to 6 hours post-instillation. The test compounds were administered unilaterally as a single 50 μl eye drop; the contralateral eyes received an equal volume of saline.

[2] = tested on: conscious cynomolgus monkeys; test: Sedation score during the IOP experiments; format: in vivo, cynomolgus monkey; set-up: key to Sedation (0-4): 0=alert, typical vocalization, movement, etc.; 1=calm, less movement; 2=slightly sedated, some vocalization, responsive to stimulation; 3=sedated, no vocalization, some response to stimulation; 4=asleep
Method: At the same time, sedation was measured and assessed according to the following score: 0=alert, typical vocalization, movement, etc.; 1=calm, less movement; 2=slightly sedated, some vocalization, responsive to stimulation; 3=sedated, no vocalization, some response to stimulation; 4=asleep.

[3] = tested on: conscious cynomolgus monkeys; test: Cardiovascular side effects (blood pressure, heart rate) after i.v. administration; format: in vivo, cynomolgus monkey; conditions: up to 6 hours, + with * = increase from base levels
From the text: Cardiovascular measurements were made in a different group of monkeys using a BP 100S automated sphygmomanometer (Nippon Colin,. Japan).

[4] = tested on: rats with ligation of two spinal nerves; test: Spinal nerve ligation model of neuropathic pain, reversal of tactile allodynia; format: in vivo, rat; conditions: for Reversal of Tactile Allodynia (%): 30 minutes after dosing
From the text: (§1) Alleviation of pain including neuropathic pain is another example of a disorder in which the compounds of the invention are useful and advantageous since pain is alleviated without undesirable side effects. […] (See, for example, Kim, S. and Chung, J. “An experimental model for peripheral neuropathy produced by segmental spinal nerve ligation in the rat.” Pain 50 pp. 355-363 (1992).) Following ligation of two spinal nerves, the animals develop a sensitivity to normally non-painful stimuli such as touch. The ability of alpha2 compounds to reverse this sensitivity, called allodynia, was tested 30 minutes after dosing by either intrathecal or intraperitoneal administration. The sedative activity of each compound was also measured using an activity chamber.

rats = test: Sedative activity measured using an activity chamber; format: in vivo, rat; conditions: for Sedation (%): 30 minutes after dosing; for sedation (in words): intrathecal or intraperitoneal, rats
From the text: as §1

[5] = target: T1, rat α2B (RNG gene) receptor (Rattus norvegicus, UniProt P19328); test: RSAT (Receptor Selection and Amplification Technology) assay, alpha 2B; format: cell-based; conditions: ratio of maximal effect to that of standard full agonist oxymetazoline
T1 construct: expressed in transfected cells; host or cells: NIH-3T3 cells, calcium phosphate cotransfection
T1 sequence (P19328 1-453): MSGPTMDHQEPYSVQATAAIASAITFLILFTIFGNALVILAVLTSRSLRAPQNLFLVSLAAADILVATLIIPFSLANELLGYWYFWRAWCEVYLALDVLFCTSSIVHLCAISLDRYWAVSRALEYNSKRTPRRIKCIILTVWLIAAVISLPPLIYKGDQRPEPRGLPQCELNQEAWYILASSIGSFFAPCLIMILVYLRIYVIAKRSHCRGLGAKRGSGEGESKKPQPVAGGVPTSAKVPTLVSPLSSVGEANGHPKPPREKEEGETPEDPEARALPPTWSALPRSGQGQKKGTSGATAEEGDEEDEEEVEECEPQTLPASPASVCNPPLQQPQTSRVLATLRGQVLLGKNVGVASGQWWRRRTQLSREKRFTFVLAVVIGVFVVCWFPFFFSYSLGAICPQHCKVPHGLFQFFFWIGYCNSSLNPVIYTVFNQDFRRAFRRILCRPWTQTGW
Outline: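 NIH-3T3 cells transiently cotransfected with receptor, hybrid Gq/i5 protein and β-galactosidase marker were incubated with compound dilutions in triplicate for 72-96 hr at 37°. Proliferation was read as β-galactosidase activity (o-nitrophenyl-β-D-galactopyranoside, overnight at 30°, OD 420 nm). EC50 and efficacy were derived, the latter relative to a standard full agonist's maximal effect.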

| Structure (SMILES) | Sedation (0-4) ([2]; ocular dose 0.1%) | Sedation (0-4) ([2]; ocular dose 0.3%) | Maximum % Decrease From Pretreatment Levels, Heart Rate ([3]; i.v. 50 μg/kg) [%] | Maximum % Decrease From Pretreatment Levels, Mean Arterial Blood Pressure ([3]; i.v. 50 μg/kg) [%] | Intrinsic Activity Relative to Oxymetazoline, Alpha 2B [5] | inhibition in vivo at 0.3 % [1] [%] | inhibition in vivo at 1 % [1] [%] | Sedation (0-4) ([2]; ocular dose 1%) | Maximum % Decrease From Pretreatment Levels, Heart Rate ([3]; i.v. 500 μg/kg) | Maximum % Decrease From Pretreatment Levels, Mean Arterial Blood Pressure ([3]; i.v. 500 μg/kg) | other results |
| --- | --- | --- | --- | --- | --- | --- | --- | --- | --- | --- | --- |
| Clc1cccc(Cl)c1N=C1NCCN1 [clonidine, reference compound] | 1 | 2 | 50 ± 5 | 35 ± 5 | – | – | – | – | – | – | inhibition in vivo at 0.3 % ([1]; 6 h): 41 ± 5%; sedation (in words) ([2]; ocular administration, monkeys): caused sedation; Maximum % Decrease From Pretreatment Levels, Heart Rate ([3]; i.v. 17 μg/kg): 32 ± 4%; Maximum % Decrease From Pretreatment Levels, Mean Arterial Blood Pressure ([3]; i.v. 17 μg/kg): 29 ± 7%; Reversal of Tactile Allodynia (%) ([4]; intrathecal 0.1 μg): 20* %; Reversal of Tactile Allodynia (%) ([4]; intrathecal 1 μg): 96* %; Sedation (%) (rats; intrathecal 1 μg): 15%; Sedation (%) (rats; intrathecal 10 μg): 60* %; sedation (in words) (rats): cause sedation at doses only slightly higher than their anti-allodynic doses |
| Cl.O=C1C2=C(CCCC2)CCC1Cc1c[nH]cn1 (centres unmarked) [Example N-1, 2-(1H-imidazol-4(5)-ylmethyl)-3,4,5,6,7,8-hexahydro-2H-naphthalen-1-one, hydrochloride salt] | – | – | – | – | 0.75 | – | – | – | – | – | Reversal of Tactile Allodynia (%) ([4]; intraperitoneal 3 mg/kg): 3%; Reversal of Tactile Allodynia (%) ([4]; intraperitoneal 30 mg/kg): 41* %; Reversal of Tactile Allodynia (%) ([4]; intrathecal 3 μg): 13%; Reversal of Tactile Allodynia (%) ([4]; intrathecal 30 μg): 64* %; alleviation of allodynia (in words) ([4]; intrathecal or intraperitoneal, rats): able to alleviate the allodynia; Sedation (%) (rats; intraperitoneal 10,000 mg/kg): 0%; Sedation (%) (rats; intrathecal 30 μg): 0%; Sedation (%) (rats; intrathecal 300 μg): 0%; sedation (in words) (rats): without causing sedation, even at very high doses |
| c1ccc2c(c1)CCC(Cc1c[nH]cn1)C2 (centres unmarked) [Example B-3b, 4(5)-(1,2,3,4-tetrahydronaphthalen-2-ylmethyl)-1H-imidazole] | 0 | 0 | 10.0 ± 2.8 | 2.4 ± 4.3 | 0.7 | – | – | – | – | – | inhibition in vivo at 0.1 % ([1]; 6 h): 25.9 ± 3.5%; inhibition in vivo at 0.3 % ([1]; 6 h): 31.2 ± 4.3% |
| c1nc(CC2CCc3sccc3C2)c[nH]1 (centres unmarked) [Example B-9a, 4(5)-(4,5,6,7-tetrahydrobenzo[b]thiophen-5-ylmethyl)-1H-imidazole] | 0 | 0 | – | – | 0.46 | 24.8 ± 3.3 | 26.8 ± 5.4 | 0 | +23.8 ± 4.4* % | +10.8 ± 3.2* % | inhibition in vivo at 0.03 % [1]: 17.6 ± 1.7%; inhibition in vivo at 0.1 % [1]: 26.7 ± 6.1%; Sedation (0-4) ([2]; ocular dose 0.03%): 0 |
| c1ccc2sc(Cc3c[nH]cn3)cc2c1 [Example C-9, 4(5)-benzo[b]thiophen-2-ylmethyl-1H-imidazole] | – | 0 | 16 ± 3.2 | 0.1 ± 3.8 | 0.88 | 13.7 ± 4.5 | 25.1 ± 4.9 | 0 | 5.9 ± 3.3% | 6.0 ± 2.2% | Maximum % Decrease From Pretreatment Levels, Heart Rate ([3]; i.v. 3.0 μg/kg): 9.4 ± 3.0%; Maximum % Decrease From Pretreatment Levels, Mean Arterial Blood Pressure ([3]; i.v. 3.0 μg/kg): 5.0 ± 2.3%; Maximum % Decrease From Pretreatment Levels, Heart Rate ([3]; i.v. 17 μg/kg): +9.4 ± 1.8* %; Maximum % Decrease From Pretreatment Levels, Mean Arterial Blood Pressure ([3]; i.v. 17 μg/kg): 1.0 ± 4.1% |
| c1nc(Cc2ccsc2)c[nH]1 [Example C-1, 4(5)-thiophen-3-ylmethyl-1H-imidazole] | – | – | 12 ± 4 | 12.8 ± 12 | 0.83 | – | 25 ± 4 | 0 | +11 ± 9* % | +5 ± 8* % | inhibition in vivo at 3 % ([1]; ocular dose 3%): 29 ± 4%; Sedation (0-4) ([2]; ocular dose 3%): 0 |
| Cc1ccc(Cc2c[nH]cn2)s1 [Example C-3, 4(5)-(5-methylthiophen-2-ylmethyl)-1H-imidazole] | – | 0 | – | – | 0.88 | 20.6 ± 4.8 | 25 ± 6.4 | 0 | 10.6 ± 3.4% | 2.3 ± 2.7% | – |
| Clc1ccc(Cc2c[nH]cn2)s1 [Example C-4, 4(5)-(5-chlorothiophen-2-ylmethyl)-1H-imidazole] | – | 0 | – | – | 0.82 | 17.7 ± 4 | 29.3 ± 4.9 | 0 | 10.9 ± 3.6% | 5.3 ± 2.9% | – |
| c1ccc2c(c1)CC[C@H](Cc1c[nH]cn1)C2 [Example J-2, (S)-4(5)-(1,2,3,4-tetrahydronaphthalen-2-ylmethyl)-1H-imidazole] | – | 0 | – | – | 0.8 | – | – | – | 6.4 ± 3.3% | +0.6 ± 3.1* % | inhibition in vivo at 0.03 % ([1]; 6 h): 12.4 ± 3.7%; Sedation (0-4) ([2]; ocular dose 0.03%): 0 |
